# Results reported in ChEMBL document CHEMBL1938343, “Lead optimisation of selective non-zinc binding inhibitors of MMP13. Part 2” (Bioorg Med Chem Lett, 2012).
# Key:
# [1] = target: T1, A disintegrin and metalloproteinase with thrombospondin motifs 5 (Homo sapiens) (UniProt Q9UNA0); test: Inhibition of ADAM-TS5 using dimethoxyfluorescein-Ser-Pro-Leu-Ala-Gln-Ala- Val-Arg-ser-Ser-Arg-Cys-fluorescein as substrate
# T1 sequence (whole entry): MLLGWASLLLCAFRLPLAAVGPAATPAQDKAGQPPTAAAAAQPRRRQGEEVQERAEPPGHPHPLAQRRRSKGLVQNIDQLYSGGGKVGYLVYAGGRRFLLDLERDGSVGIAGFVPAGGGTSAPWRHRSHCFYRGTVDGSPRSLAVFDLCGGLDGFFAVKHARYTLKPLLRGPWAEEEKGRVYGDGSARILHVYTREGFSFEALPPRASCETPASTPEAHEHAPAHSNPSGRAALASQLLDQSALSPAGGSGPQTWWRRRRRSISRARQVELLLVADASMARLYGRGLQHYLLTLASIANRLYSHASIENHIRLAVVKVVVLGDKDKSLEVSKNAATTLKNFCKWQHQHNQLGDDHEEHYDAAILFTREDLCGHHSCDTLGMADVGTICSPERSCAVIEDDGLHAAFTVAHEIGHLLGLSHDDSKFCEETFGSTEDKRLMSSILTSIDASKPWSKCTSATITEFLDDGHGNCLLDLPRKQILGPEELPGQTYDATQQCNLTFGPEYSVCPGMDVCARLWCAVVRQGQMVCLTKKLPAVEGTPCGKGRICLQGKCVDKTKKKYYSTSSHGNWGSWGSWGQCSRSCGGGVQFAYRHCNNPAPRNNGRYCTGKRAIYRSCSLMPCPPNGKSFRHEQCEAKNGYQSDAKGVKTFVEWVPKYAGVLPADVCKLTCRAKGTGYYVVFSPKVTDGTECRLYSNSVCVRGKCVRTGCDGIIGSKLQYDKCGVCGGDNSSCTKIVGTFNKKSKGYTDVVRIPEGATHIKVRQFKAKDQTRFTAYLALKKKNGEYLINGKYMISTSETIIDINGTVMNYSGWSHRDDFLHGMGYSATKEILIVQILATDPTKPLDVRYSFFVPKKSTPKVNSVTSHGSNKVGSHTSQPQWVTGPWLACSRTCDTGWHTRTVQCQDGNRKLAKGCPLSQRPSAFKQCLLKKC
# [2] = Clearance in rat at 2 mg/kg, iv; format: ADME, organism-based; design: dose 2 mg/kg, route intravenous; conditions: in vivo
# [3] = target: Macrophage metalloelastase (Homo sapiens, UniProt P39900); test: Inhibition of MMP12 using Mca-Pro-cyclohexyl-Ala-Gly-Nva-His-Ala- Dap(Dnp)-NH2 as substrate by fluorometric analysis
# [4] = target: T2, A disintegrin and metalloproteinase with thrombospondin motifs 4 (Homo sapiens) (UniProt O75173); test: Inhibition of ADAM-TS4 using dimethoxyfluorescein-Ser-Pro-Leu-Ala-Gln-Ala- Val-Arg-ser-Ser-Arg-Cys-fluorescein as substrate
# T2 sequence (whole entry): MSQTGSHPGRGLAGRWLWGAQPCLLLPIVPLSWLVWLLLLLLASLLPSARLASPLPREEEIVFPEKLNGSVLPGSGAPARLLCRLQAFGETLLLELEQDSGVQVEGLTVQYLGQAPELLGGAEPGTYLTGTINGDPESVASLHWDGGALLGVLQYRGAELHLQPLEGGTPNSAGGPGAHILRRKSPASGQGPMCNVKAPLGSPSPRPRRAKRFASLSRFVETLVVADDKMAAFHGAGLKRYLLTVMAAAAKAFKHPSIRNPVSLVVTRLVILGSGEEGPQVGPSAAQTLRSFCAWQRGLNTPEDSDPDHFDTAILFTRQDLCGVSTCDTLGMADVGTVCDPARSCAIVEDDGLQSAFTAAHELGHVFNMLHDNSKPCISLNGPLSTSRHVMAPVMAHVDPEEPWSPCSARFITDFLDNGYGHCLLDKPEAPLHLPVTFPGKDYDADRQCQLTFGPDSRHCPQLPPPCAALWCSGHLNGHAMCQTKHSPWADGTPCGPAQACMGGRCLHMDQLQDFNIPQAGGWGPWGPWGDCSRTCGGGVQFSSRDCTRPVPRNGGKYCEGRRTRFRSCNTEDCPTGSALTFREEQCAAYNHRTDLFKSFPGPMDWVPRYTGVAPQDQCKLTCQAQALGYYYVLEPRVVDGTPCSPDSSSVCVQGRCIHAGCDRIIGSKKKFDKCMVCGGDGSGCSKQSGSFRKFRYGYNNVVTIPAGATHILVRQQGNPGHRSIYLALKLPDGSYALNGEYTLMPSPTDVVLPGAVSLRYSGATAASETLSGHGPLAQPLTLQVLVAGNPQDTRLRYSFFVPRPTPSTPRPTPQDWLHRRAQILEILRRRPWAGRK
# Macrophage metalloelastase, sequence (P39900 whole entry): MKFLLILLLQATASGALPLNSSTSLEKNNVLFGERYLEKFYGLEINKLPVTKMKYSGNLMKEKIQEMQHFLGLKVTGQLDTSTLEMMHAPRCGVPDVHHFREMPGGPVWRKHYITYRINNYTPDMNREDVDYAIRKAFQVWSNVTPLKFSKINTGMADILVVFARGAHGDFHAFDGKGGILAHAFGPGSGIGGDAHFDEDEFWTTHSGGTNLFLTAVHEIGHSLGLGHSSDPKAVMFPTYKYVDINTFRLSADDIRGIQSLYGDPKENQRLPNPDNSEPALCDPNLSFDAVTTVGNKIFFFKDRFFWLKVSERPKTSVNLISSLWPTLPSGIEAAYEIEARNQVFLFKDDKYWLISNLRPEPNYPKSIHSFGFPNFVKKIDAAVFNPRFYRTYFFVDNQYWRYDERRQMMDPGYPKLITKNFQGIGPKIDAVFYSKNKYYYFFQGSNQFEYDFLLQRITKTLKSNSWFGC
smiles,measurement,setting,value
CN1CCC(NC(=O)c2ccc(Oc3ccc(C#C[C@]4(O)CN5CCC4CC5)cc3)cc2)CC1,INH,[1],> 10 µM
same,clearance,[2],16 mL/min/kg
same,IC50,[3]; read-out: IC50,> 8 µM
same,IC50,[3]; read-out: pIC50 (converted),7.94 µM
same,INH,[4],> 10 µM
